Laboratory results reported in PMC9794833, “Ligand recognition and activation of neuromedin U receptor 2” (Nature Communications, 2022).

Legend:
NMU2 H285A = biological target: T1, NMU2 H285A (Homo sapiens, UniProt Q9GZQ4, H285A); test: IP accumulation assay, NMU2 mutant H285A; format: cell-based; conditions: 10 μM R-PSOP
T1 construct: HA signal peptide (N); expressed in transfected cells; host or cells: HEK 293F, transient transfection, PTT5 vector
Experimental: (§1) NMU2 constructs of WT and mutants were constructed into PTT5 vector (Invitrogen), as mentioned above. HEK 293F cells were transiently transfected with WT or mutants with total of 2000 ng plasmid DNA using transfection reagent (PEI MAX 2000, Polysciences) and cultivated at 37 °C with 5% CO2. Cells were collected after 48-h transfection. IP accumulation was tested by IP-One Gq assay kit (Cisbio Bioassays, 62IPAPEJ) following the instruction manual. In general, cells were resuspended with 1× HBSS buffer containing 20 mM LiCl (stimulation buffer) and seeded into the white 384-well microplates (Proxi Plate^TM-384 Plus, PerkinElmer) with a density of 20,000 per well. Cells were preincubated with 10^−5 M R-PSOP (provided by Boehringer Ingelheim company, Germany) and gradient concentration from 10^−4 to 10^−11 M of NMU-25 or gradient concentration 10^−4 to 10^−11 M of NMU-25 alone in stimulation buffer at 37 °C for 90 min. The cryptate-labeled anti-IP1 monoclonal antibody and d2-labeled IP1 were diluted with lysis & detection buffer (1:20) and added to each well by 3 μl, respectively. The plates were incubated at room temperature for 60 minutes and then read in a Synerg^TM H1 microplate reader (BioTek) with excitation at 330 nm and emission at 620 and 665 nm. The IP1 production was calculated by a standard dose–response curve and analyzed by GraphPad Prism 8.0.

NMU2 [1] = conditions: cited from earlier work
NMU2 F177C = biological target: T2, NMU2 F177C (Homo sapiens, UniProt Q9GZQ4, F177C); test: IP accumulation assay, NMU2 mutant F177C; format: cell-based; conditions: 10 μM R-PSOP
T2 construct: HA signal peptide (N); expressed in transfected cells; host or cells: HEK 293F, transient transfection, PTT5 vector
T2 sequence (Q9GZQ4 whole entry F177C): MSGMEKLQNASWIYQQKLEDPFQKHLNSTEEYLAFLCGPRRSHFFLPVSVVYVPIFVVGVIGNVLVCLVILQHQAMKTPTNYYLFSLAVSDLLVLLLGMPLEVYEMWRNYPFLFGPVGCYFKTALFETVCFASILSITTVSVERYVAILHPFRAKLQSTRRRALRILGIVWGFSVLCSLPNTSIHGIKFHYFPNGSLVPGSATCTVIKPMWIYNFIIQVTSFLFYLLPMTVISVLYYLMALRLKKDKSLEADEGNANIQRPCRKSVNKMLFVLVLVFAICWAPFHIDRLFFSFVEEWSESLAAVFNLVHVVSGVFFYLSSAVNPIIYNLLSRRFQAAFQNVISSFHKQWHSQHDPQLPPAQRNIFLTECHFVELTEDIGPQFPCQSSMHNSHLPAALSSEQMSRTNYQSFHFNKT
Experimental: as §1

NMU2 E102A = biological target: T3, NMU2 E102A (Homo sapiens, UniProt Q9GZQ4, E102A); test: IP accumulation assay, NMU2 mutant E102A; format: cell-based; conditions: 10 μM R-PSOP
T3 construct: HA signal peptide (N); expressed in transfected cells; host or cells: HEK 293F
T3 sequence (Q9GZQ4 whole entry E102A): as the sequence (Q9GZQ4 whole entry F177C) above, with E102A, C177F counted along it
Experimental: as §1

NMU2 F131L = biological target: T4, NMU2 F131L (Homo sapiens, UniProt Q9GZQ4, F131L); test: IP accumulation assay, NMU2 mutant F131L; format: cell-based; conditions: 10 μM R-PSOP
T4 construct: HA signal peptide (N); expressed in transfected cells; host or cells: HEK 293F, transient transfection, PTT5 vector
T4 sequence (Q9GZQ4 whole entry F131L): as the sequence (Q9GZQ4 whole entry F177C) above, with F131L, C177F counted along it
Experimental: as §1

NMU2 [2] = biological target: T5, NMU2 (Homo sapiens, UniProt Q9GZQ4); test: IP accumulation assay (IP-One Gq kit), WT NMU2; format: cell-based; conditions: 10 μM R-PSOP
T5 construct: HA signal peptide (N); expressed in transfected cells; host or cells: HEK 293F
T5 sequence (Q9GZQ4 whole entry): as the sequence (Q9GZQ4 whole entry F177C) above, with C177F counted along it
Experimental: as §1

NMU2 F224A = biological target: T6, NMU2 F224A (Homo sapiens, UniProt Q9GZQ4, F224A); test: IP accumulation assay, NMU2 mutant F224A; format: cell-based; conditions: 10 μM R-PSOP
T6 construct: HA signal peptide (N); expressed in transfected cells; host or cells: HEK 293F, transient transfection, PTT5 vector
T6 sequence (Q9GZQ4 whole entry F224A): as the sequence (Q9GZQ4 whole entry F177C) above, with C177F, F224A counted along it
Experimental: as §1

NMU2 E127A = biological target: T7, NMU2 E127A (Homo sapiens, UniProt Q9GZQ4, E127A); test: IP accumulation assay, NMU2 mutant E127A; format: cell-based; conditions: 10 μM R-PSOP
T7 construct: HA signal peptide (N); expressed in transfected cells; host or cells: HEK 293F
T7 sequence (Q9GZQ4 whole entry E127A): as the sequence (Q9GZQ4 whole entry F177C) above, with E127A, C177F counted along it
Experimental: as §1

T1 sequence (Q9GZQ4 whole entry H285A): as the sequence (Q9GZQ4 whole entry F177C) above, with C177F, H285A counted along it

## O=C(Nc1ccccc1)Nc1cnc2c(c1)C[C@@]1(CN3CCC1CC3)O2 [R-PSOP]
NMU2 H285A
  Ratio EC50(NmU-25 + R-PSOP)/EC50(NmU-25): 20
  Ratio change EC50 ratio (WT)/EC50 ratio (mutant): 0.65 fold
NMU2 [1]
  Ki: 52 nM
NMU2 F177C
  Ratio EC50(NmU-25 + R-PSOP)/EC50(NmU-25): 8
  Ratio change EC50 ratio (WT)/EC50 ratio (mutant): 1.6 fold
NMU2 F177C; IP accumulation
  antagonistic effect of R-PSOP (in words): decreased the antagonistic effect of R-PSOP significantly
NMU2 E102A
  Ratio EC50(NmU-25 + R-PSOP)/EC50(NmU-25): 2
  Ratio change EC50 ratio (WT)/EC50 ratio (mutant): 6.5 fold
NMU2 E102A; IP accumulation
  antagonist inhibition effect of R-PSOP (in words): abolished
NMU2 F131L
  Ratio EC50(NmU-25 + R-PSOP)/EC50(NmU-25): 3
  Ratio change EC50 ratio (WT)/EC50 ratio (mutant): 4 fold
NMU2 F131L; IP accumulation
  antagonistic effect of R-PSOP (in words): decreased the antagonistic effect of R-PSOP significantly
NMU2 [2]
  Ratio EC50(NmU-25 + R-PSOP)/EC50(NmU-25): 13
  Ratio change EC50 ratio (WT)/EC50 ratio (mutant): 1 fold
NMU2 F224A
  Ratio EC50(NmU-25 + R-PSOP)/EC50(NmU-25): 4
  Ratio change EC50 ratio (WT)/EC50 ratio (mutant): 3 fold
NMU2 F224A; IP accumulation
  antagonist inhibition effect of R-PSOP (in words): abolished
NMU2 E127A
  Ratio EC50(NmU-25 + R-PSOP)/EC50(NmU-25): 2
  Ratio change EC50 ratio (WT)/EC50 ratio (mutant): 6.5 fold
